Series [1] deals with T1, HCMV polymerase (Human cytomegalovirus, UniProt P08546).
T1 construct: made in house; host or cells: recombinant baculovirus-infected SF-9 cells
Put plainly: biochemical. Particulars: modified SPA assay: compounds diluted in 100% DMSO, 4.5 mM DTT in polymerase buffer; read-out: polymerase IC50 (μM) HCMV. The protocol:
The HCMV polymerase assay is performed using a scintillation proximity assay (SPA) as described in several references, such as N. D. Cook, et al., Pharmaceutical Manufacturing International, pages 49-53 (1992); K. Takeuchi, Laboratory Practice, September issue (1992); U.S. Pat. No. 4,568,649 (1986); which are incorporated by reference herein. Reactions are performed in 96-well plates. The assay is conducted in 100 μl volume with 5.4 mM HEPE (pH 7.5), 11.7 mM KCl, 4.5 mM MgCl2, 0.36 mg/ml BSA, and 90 nM ^3H-dTTP. Assays are run with and without CHAPS, (3-[(3-cholamidopropyl)-dimethylammonio]-1-propane-sulfonate) at a final concentration of 2 mM. HCMV polymerase is diluted in enzyme dilution buffer containing 50% glycerol, 250 mM NaCl, 10 mM HEPES (pH 7.5), 100 μg/ml BSA, and 0.01% sodium azide. The HCMV polymerase, which is expressed in recombinant baculovirus-infected SF-9 cells and purified according to literature procedures, is added at 10% (or 10 μl) of the final reaction volume, i.e., 100 μl. Compounds are diluted in 50% DMSO and 10 μl are added to each well. Control wells contain an equivalent concentration of DMSO. Unless noted otherwise, reactions are initiated via the addition of 6 nM biotinylated poly(dA)-oligo(dT) template/primer to reaction mixtures containing the enzyme, substrate, and compounds of interest. Plates are incubated in a 25 C or 37 C H2O bath and terminated via the addition of 40 μl/reaction of 0.5 M EDTA (pH 8) per well. Reactions are terminated within the time-frame during which substrate incorporation is linear and varied depending upon the enzyme and conditions used, i.e., 30 min. for HCMV polymerase. Ten μl of streptavidin-SPA beads (20 mg/ml in PBS/10% glycerol) are added following termination of the reaction. Plates are incubated 10 min. at 37 ° C., then equilibrated to room temperature, and counted on a Packard Topcount. Linear regressions are performed and IC50's are calculated using computer software.
A modified version of the above HCMV polymerase assay is performed as described above, but with the following changes: Compounds are diluted in 100% DMSO until final dilution into assay buffer. In the previous assay, compounds are diluted in 50% DMSO. 4.5 mM dithiothreotol (DTT) is added to the polymerase buffer.

Counter-ions that a name gives are not always drawn.

T1 sequence (P08546 whole entry): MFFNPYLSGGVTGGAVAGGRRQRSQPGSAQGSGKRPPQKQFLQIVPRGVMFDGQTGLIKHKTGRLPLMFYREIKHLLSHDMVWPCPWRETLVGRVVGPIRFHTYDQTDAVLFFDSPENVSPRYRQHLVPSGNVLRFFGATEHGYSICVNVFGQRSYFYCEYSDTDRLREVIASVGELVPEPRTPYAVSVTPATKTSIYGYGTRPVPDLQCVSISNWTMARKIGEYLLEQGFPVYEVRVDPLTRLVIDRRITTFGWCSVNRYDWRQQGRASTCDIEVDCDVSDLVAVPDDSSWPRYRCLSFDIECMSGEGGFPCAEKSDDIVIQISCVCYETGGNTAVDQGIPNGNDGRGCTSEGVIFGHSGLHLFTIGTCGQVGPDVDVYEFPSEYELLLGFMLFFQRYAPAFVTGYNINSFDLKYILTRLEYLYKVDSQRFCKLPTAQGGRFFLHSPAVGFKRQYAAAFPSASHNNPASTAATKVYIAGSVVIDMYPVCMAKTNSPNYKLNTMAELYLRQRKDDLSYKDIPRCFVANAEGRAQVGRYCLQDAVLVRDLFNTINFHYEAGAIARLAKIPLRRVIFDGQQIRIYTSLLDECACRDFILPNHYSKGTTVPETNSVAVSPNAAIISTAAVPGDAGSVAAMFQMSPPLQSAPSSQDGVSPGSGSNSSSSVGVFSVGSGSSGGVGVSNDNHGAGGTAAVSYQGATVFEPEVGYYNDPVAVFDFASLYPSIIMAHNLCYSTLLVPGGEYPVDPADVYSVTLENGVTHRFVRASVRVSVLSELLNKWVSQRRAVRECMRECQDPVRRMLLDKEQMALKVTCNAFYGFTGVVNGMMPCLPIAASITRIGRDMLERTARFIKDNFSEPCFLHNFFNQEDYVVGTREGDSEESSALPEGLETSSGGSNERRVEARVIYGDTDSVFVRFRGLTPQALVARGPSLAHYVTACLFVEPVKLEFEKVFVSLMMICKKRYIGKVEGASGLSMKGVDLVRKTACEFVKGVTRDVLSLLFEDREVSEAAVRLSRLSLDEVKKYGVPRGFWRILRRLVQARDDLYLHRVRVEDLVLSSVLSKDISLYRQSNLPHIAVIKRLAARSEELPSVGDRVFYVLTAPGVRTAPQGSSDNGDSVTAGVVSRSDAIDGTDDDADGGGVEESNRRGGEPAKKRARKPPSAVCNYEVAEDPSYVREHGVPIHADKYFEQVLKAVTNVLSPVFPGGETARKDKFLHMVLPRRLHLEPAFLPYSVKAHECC

For `CCN(CC)CCn1cc(C(=O)NCc2ccc(Cl)cc2)c(=O)c2cc(C#CCO)sc21` (as salt: hydrochloride) [Example 18, N-(4-Chlorobenzyl)-7-[2-(diethylamino)ethyl]-2-(3hydroxy-1-propynyl)4-oxo4,7-dihydrothieno[2,3-b]pyridine-5-carboxamide hydrochloride], the melting point was 212 to 214 °C (dec.).

In turn, `CCn1cc(C(=O)NCc2ccc(Cl)cc2)c(=O)c2cc(C#CCOC(=O)C(N)C(C)C)sc21` (stereo not shown) (as salt: hydrochloride) [Example 31, 3-(5-{[(4-Chlorobenzyl)amino]carbonyl}-7-ethyl-4-oxo-4,7-dihydrothieno[2,3-b]pyridin-2-yl)-2-propynyl 2-Amino-3-methylbutanoate Hydrochloride] came in with a melting point of 171 to 172 °C.

In the case of `O=C(NCc1ccc(Cl)cc1)c1cnc2sccc2c1O` [Example 1, N-(4-Chlorobenzyl)-4-hydroxythieno[2,3-b]pyridine-5-carboxamide], the melting point lay within 238 to 240 °C. The concentration for half-maximal inhibition (IC50) in series [1] came out at 28.9 µM.

On to `O=C(NCc1ccc(Cl)cc1)c1cnc2sc(I)cc2c1O` [Example 2, N-(4-Chlorobenzyl)-4-hydroxy-2-iodothieno[2,3-b]pyridine-5-carboxamide], for which the melting point was 231 to 232 °C (dec.). In addition, in series [1], the IC50 is 6.3 µM.

In the case of `O=C(NCc1ccc(Cl)cc1)c1cnc2sc(S(=O)(=O)N3CCOCC3)cc2c1O` [Example 3, N-(4-Chlorobenzyl)-4-hydroxy-2-(4-morpholinylsulfonyl)-thieno[2,3-b]pyridine-5-carboxamide], the melting point is greater than 300 °C. The IC50 in series [1] came out at 15.9 µM.

With `O=C(NCc1ccc(Cl)cc1)c1cnc2sc(Br)cc2c1O` [Example 4, 2-Bromo-N-(4-chlorobenzyl)-4-hydroxythieno[2,3-b]pyridine-5-carboxamide], the melting point was in the range of 234 to 236 °C. For the same compound, the IC50 in series [1] was determined as 10.8 µM.

`COCC#Cc1cc2c(O)c(C(=O)NCc3ccc(Cl)cc3)cnc2s1` [Example 6, N-(4-Chlorobenzyl)-4-hydroxy-2-(3-methoxy-1-propynyl)-thieno[2,3-b]pyridine-5-carboxamide] displayed a melting point of 215 to 218 °C. Also, in series [1], the half-maximal inhibitory concentration (IC50) is 5.8 µM.

Take `O=C(NCc1ccc(Cl)cc1)c1cnc2sc(C#CCCO)cc2c1O` [Example 7, N-(4-Chlorobenzyl)-4-hydroxy-2-(4-hydroxy-1-butynyl)thieno[2,3-b]pyridine-5-carboxamide]: the melting point fell in the range of 242 to 246 °C. Also, the IC50 in series [1] came to 8 µM.

Turning to `N#Cc1cc2c(O)c(C(=O)NCc3ccc(Cl)cc3)cnc2s1` [Example 9, N-(4-Chlorobenzyl)-2-cyano-4-hydroxythieno[2,3-b]pyridine-5-carboxamide], the IC50 in series [1] came out at 12.5 µM.

With `COC(=O)C(CC#Cc1cc2c(O)c(C(=O)NCc3ccc(Cl)cc3)cnc2s1)C(=O)OC` [Example 10, Dimethyl 2-[3-(5-{[(4-Chlorobenzyl)amino]carbonyl}-4-hydroxythieno[2,3-b]pyridin-2-yl)-2-propynyl]malonate], the melting point was in the range of 197 to 198 °C. Besides, the IC50 in series [1] was determined as 34.3 µM.

Take `CCn1cc(C(=O)NCc2ccc(Cl)cc2)c(=O)c2cc(Br)sc21` [Example 11, 2-Bromo-N-(4-chlorobenzyl)-7-ethyl-4-oxo-4,7-dihydrothieno[2,3-b]pyridine-5-carboxamide]: the melting point fell in the range of 196 to 197 °C. For the same compound, the IC50 in series [1] came to 18.8 µM.

`CCn1cc(C(=O)NCc2ccc(Cl)cc2)c(=O)c2ccsc21` [Example 12, N-(4-Chlorobenzyl)-7-ethyl-4-oxo-4,7-dihydrothieno[2,3-b]pyridine-5-carboxamide] displayed a melting point of 183 to 184 °C. Besides, the IC50 in series [1] was determined as 11 µM.

For the compound `CCn1cc(C(=O)NCc2ccc(Cl)cc2)c(=O)c2cc(I)sc21` [Example 13, N-(4-Chlorobenzyl)-7-ethyl-2-iodo-4-oxo-4,7-dihydrothieno[2,3-b]pyridine-5-carboxamide], the melting point is 214 to 218 °C. In series [1], the IC50 worked out at 9 µM.

The compound `CCn1cc(C(=O)NCc2ccc(Cl)cc2)c(=O)c2cc(C#CCO)sc21` [Example 14, N-(4-Chlorobenzyl)-7-ethyl-2-(3-hydroxy-1-propynyl)-4-oxo4,7-dihydrothieno[2,3-b]pyridine-5-carboxamide] yielded a melting point of 217 to 219 °C. The IC50 in series [1] was 1.8 µM.

Take `CCn1cc(C(=O)NCc2ccc(Cl)cc2)c(=O)c2cc(CCCO)sc21` [Example 16, N-(4-Chlorobenzyl)-7-ethyl-2-(3-hydroxypropyl)-4-oxo-4,7-dihydrothieno [2,3-b] pyfidine-5-carboxamide]: the melting point is 144 to 146 °C. In series [1], the IC50 was 0.67 µM.

Consider `O=C(O)Cn1cc(C(=O)NCc2ccc(Cl)cc2)c(=O)c2cc(C#CCO)sc21` [Example 19, 2-[5-{[(4-Chlorobenzyl)amino]carbonyl}-2-(3-hydroxy-1-propynyl)4-oxothieno[2,3-b]pyridin-7(4H)-yl]acetic Acid], for which the melting point was 230 to 235 °C (dec.). The half-inhibitory concentration (IC50) in series [1] stood at 0.86 µM.

Take `CCn1cc(C(=O)NCc2ccc(Cl)cc2)c(=O)c2cc(CCCCO)sc21` [Example 20, N-(4-Chlorobenzyl)-7-ethyl-2-(4-hydroxybutyl)4-oxo-4,7-dihydrothieno[2,3-b]pyridine-5-carboxamide]: the melting point is 136 to 139 °C. In series [1], the IC50 turned out to be 0.18 µM.

In the case of `O=C(NCc1ccc(Cl)cc1)c1cn(CCO)c2sc(CCCO)cc2c1=O` [Example 21, N-(4-Chlorobenzyl)-7-(2-hydroxyethyl)-2-(3-hydroxypropyl)4-oxo-4,7-dihydrothieno[2,3-b]pyridine-5-carboxamide], the melting point was 174 to 178 °C. Further, the IC50 in series [1] was less than 0.78 µM.

`CCN(CC)CCn1cc(C(=O)NCc2ccc(Cl)cc2)c(=O)c2cc(CCCO)sc21` [Example 22, N-(4-Chlorobenzyl)-7-[2-(diethylamino)ethyl]-2-(3-hydroxypropyl)4-oxo4,7-dihydrothieno[2,3-b]pyridine-5-carboxamide Hydrorhloride] registered a melting point of 111 to 114 °C. Further, the concentration for half-maximal inhibition (IC50) in series [1] came to 0.81 µM.

For the compound `Cn1cc(C(=O)NCc2ccc(Cl)cc2)c(=O)c2cc(I)sc21` [Example 23, N-(4-Chlorobenzyl)-2-iodo-7-methyl-4-oxo-4,7-dihydrothieno[2,3-b]pyridine-5-carboxamide], the melting point was in the range of 236 to 237 °C. Besides, the IC50 in series [1] amounted to 2.9 µM.

`Cn1cc(C(=O)NCc2ccc(Cl)cc2)c(=O)c2cc(C#CCO)sc21` [Example 24, N-(4-Chlorobenzyl)-2-(3-hydroxy-1-propynyl)-7-methyl-4-oxo-4,7-dihydrothieno[2,3-b]pyridine-5-carboxamide] came in with a melting point of 206 to 208 °C. The IC50 in series [1] turned out to be 1 µM.

As for `CC(C)n1cc(C(=O)NCc2ccc(Cl)cc2)c(=O)c2cc(I)sc21` [Example 26, N-(4-Chlorobenzyl)-2-iodo-7-isopropyl-4-oxo-7-3dihydrothiedion[2,3-b]pyridine-5-carboxamide], the melting point was 173 to 180 °C. Moreover, the half-maximal inhibitory concentration (IC50) in series [1] is 14.2 µM.

For `CC(C)n1cc(C(=O)NCc2ccc(Cl)cc2)c(=O)c2cc(C#CCO)sc21` [Example 27, N-(4-Chlorobenzyl)-2-(3-hydroxy-1-propynyl)-7-isopropyl-4-oxo-4,7-dihydrothieno[2,3-b]pyridine-5-carboxamide], the melting point lay within 190 to 196 °C. For the same compound, the IC50 in series [1] was 4.2 µM.

With `CC(C)n1cc(C(=O)NCc2ccc(Cl)cc2)c(=O)c2cc(CCCO)sc21` [Example 28, N-(4-Chlorobenzyl)-2-(3-hydroxypropyl)-7-isopropyl-4-oxo4,7-dihydrothieno[2,3-b]pyridine-5-carboxamide], the melting point was in the range of 84 to 92 °C. The concentration for half-maximal inhibition (IC50) in series [1] stood at 2.4 µM.

Turning to `CCn1cc(C(=O)NCc2ccc(Cl)cc2)c(=O)c2cc(C#CCOC(=O)C(N)C(C)C)sc21` (stereo not shown) [Example 31, 3-(5-{[(4-Chlorobenzyl)amino]carbonyl}-7-ethyl-4-oxo-4,7-dihydrothieno[2,3-b]pyridin-2-yl)-2-propynyl 2-Amino-3-methylbutanoate Hydrochloride], the IC50 in series [1] worked out at 15.4 µM.

The values above are taken from patent US6495683B2, “4-oxo-4,7-dihydro-thieno[2,3-b]pyridine-5-carboxamides as antiviral agents” (Pharmacia and Upjohn Company, priority 1999, dated 2002).
